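Grown in 96-well plates, cells were treated for 48 hours with each compound at five concentrations. Insufficient inhibition: endpoint recorded as highest concentration tested. At the GI50, growth is halved. The concentration for full growth arrest is given as TGI.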
Tests used:
Experiment in all cases: DTP human tumour cell line panel, 48 h
[1] = system: 786-0 renal
[2] = system: MDA-MB-435
[3] = system: HL-60(TB) leukemia
[4] = system: OVCAR-3 ovarian
[5] = system: OVCAR-5 ovarian
[6] = system: NCI-H460 lung
[7] = system: SK-MEL-28 melanoma
[8] = system: UO-31 renal
[9] = system: HT29 colon
[10] = system: SF-268 CNS
[11] = system: LOX IMVI melanoma
[12] = system: RPMI-8226 leukemia
[13] = system: MCF7 breast
[14] = system: UACC-257 melanoma
[15] = system: MOLT-4 leukemia
[16] = system: SNB-75 CNS
[17] = system: MDA-MB-231 breast
[18] = system: SF-539 CNS
[19] = system: NCI-H23 lung
[20] = system: SW-620 colon
[21] = system: K-562 leukemia
[22] = system: PC-3 prostate
[23] = system: UACC-62 melanoma
[24] = system: SK-MEL-2 melanoma
[25] = system: OVCAR-4 ovarian
[26] = system: IGROV1 ovarian
[27] = system: T-47D breast

Work on C#CCN=C(N/N=C/c1ccc([N+](=O)[O-])o1)NS(=O)(=O)c1cc(C)c(Cl)cc1SCC(N)=O yielded a GI50 [1] of 19.4 µM, a TGI [1] of 36.5 µM and a GI50 [2] greater than 100 µM. The TGI [2] was greater than 100 µM, the GI50 [3] was 21.1 µM and the TGI [3] was greater than 100 µM. For the same molecule, the GI50 [4] was 24.9 µM, the TGI [4] was 41.1 µM and the GI50 [5] was 19.9 µM. It also gave a TGI [5] of 34.5 µM, a GI50 [6] of 12.5 µM and a TGI [6] of 29.9 µM. For the same molecule, the GI50 [7] was 14.5 µM, the TGI [7] was 32.7 µM and the GI50 [8] was 17.6 µM. The TGI [8] was 31.4 µM, the GI50 [9] was 26.3 µM and the TGI [9] was greater than 100 µM. The GI50 [10] was 15 µM, the TGI [10] was 35.8 µM and the GI50 [11] was 8.14 µM. The TGI [11] was 35.2 µM, the GI50 [12] was 12.8 µM and the TGI [12] was 34.5 µM. The GI50 [13] was 6.59 µM, the TGI [13] was 22.5 µM and the GI50 [14] was 13.9 µM. The TGI [14] was 27 µM, the GI50 [15] was 13.2 µM and the TGI [15] was 31.9 µM. It also gave a GI50 [16] of 25.8 µM, a TGI [16] of 59.8 µM and a GI50 [17] of 11.4 µM. It also gave a TGI [17] of 26.4 µM, a GI50 [18] of 17.3 µM and a TGI [18] of 31.7 µM. It also gave a GI50 [19] of 18.5 µM, a TGI [19] of 33.1 µM and a GI50 [20] of 4.44 µM. It also gave a TGI [20] of 17.1 µM, a GI50 [21] of 23.7 µM and a TGI [21] of 52.5 µM. The GI50 [22] was 20.4 µM, the TGI [22] was 38.7 µM and the GI50 [23] was 47.3 µM. The TGI [23] was greater than 100 µM, the GI50 [24] was 4.97 µM and the TGI [24] was 18.3 µM. It also gave a GI50 [25] of 16.5 µM, a TGI [25] of 33.3 µM and a GI50 [26] of 13.9 µM. For the same molecule, the TGI [26] was 27.2 µM, the GI50 [27] was 18.8 µM and the TGI [27] was 34.9 µM.
